Test results reported in PubChem BioAssay (NCI).
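Step 1: Grow cells in 96-well plates. Step 2: Expose to compound for 48 hours at 5 concentrations. Step 3: Interpolate endpoints linearly; if unreached, use highest concentration. The concentration for full growth arrest is given as TGI.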

How the values were obtained:
Assay in all cases: growth of human tumour cells (NCI), 48 h
[1] = test system: CCRF-CEM leukemia
[2] = test system: U251 CNS
[3] = test system: OVCAR-3 ovarian
[4] = test system: SNB-19 CNS
[5] = test system: SF-539 CNS
[6] = test system: SW-620 colon
[7] = test system: NCI-H460 lung
[8] = test system: MDA-MB-231 breast
[9] = test system: UACC-62 melanoma
[10] = test system: MOLT-4 leukemia

Compound	TGI [1] [µM]	TGI [2] [µM]	TGI [3] [µM]	TGI [4] [µM]	TGI [5] [µM]	TGI [6] [µM]	TGI [7] [µM]	TGI [8] [µM]	TGI [9] [µM]	TGI [10] [µM]
CC1(C)CC(=O)c2c(N)n[nH]c2C1	> 100	> 100	> 100	> 100	> 100	> 100	> 100	> 100	> 100	> 100
COCC(C#N)NC1CC(OC2CC(O)(C(=O)CO)Cc3c(O)c4c(c(O)c32)C(=O)c2c(OC)cccc2C4=O)OC(C)C1O (stereo not given)	1.69	0.86	3	2.61	0.365	4.8	0.189	0.729	0.21	0.0471
CC1(C)C2CC3C(C)(C2)C31c1cc(Cl)ccc1N (stereo not given)	33.4	28.5	31.2	33.5	32	28.2	28.9	30	29.1	22.7
CCCCCCCCCCCC(=O)N(CCCCCCCCC)CC(O)C(O)C(OC1OC(CO)C(O)C(O)C1O)C(O)CO (stereo not given)	41	35.5	40.3	40.4	50.8	35.1	35.6	43.2	34.1	40.3
c1ccc2c(c1)nnn2C1CCCCO1 (stereo not given)	> 100	> 100	> 100	> 100	> 100	> 100	> 100	> 100	> 100	> 100
